Results: patent US20130131075A1, “NEW COMPOUNDS” (Boehringer Ingelheim International GmbH, priority 2009, published 2013)

Biological target: T1, cynomolgus BK1-receptor (Macaca fascicularis, UniProt Q3BCU0)
T1 construct: expressed in transfected cells; host or cells: CHO cells (homogenate)
T1 sequence (Q3BCU0 1-352): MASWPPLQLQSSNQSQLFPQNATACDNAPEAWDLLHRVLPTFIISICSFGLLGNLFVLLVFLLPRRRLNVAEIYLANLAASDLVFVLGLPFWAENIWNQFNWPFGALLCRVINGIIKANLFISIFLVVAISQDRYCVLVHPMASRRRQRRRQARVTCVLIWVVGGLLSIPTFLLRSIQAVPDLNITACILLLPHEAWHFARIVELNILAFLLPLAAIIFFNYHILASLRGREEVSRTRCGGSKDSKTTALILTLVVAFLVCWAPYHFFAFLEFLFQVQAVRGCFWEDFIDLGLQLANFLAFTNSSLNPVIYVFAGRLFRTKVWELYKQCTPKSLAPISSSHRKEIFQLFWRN
Experiment: cynoBK1-receptor binding assay
Conditions: CHO cells expressing cynomolgus BK1-receptor, radioligand kallidine (DesArg10,Leu9); for inhibition at 10 µM: at 10 μgmol/L
How it was run: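 Radioligand competition on homogenates of CHO cells expressing cynomolgus BK1 receptor (50 to 250 μg protein/assay), incubated 60-180 minutes at ambient temperature with 0.5 to 5.0 nM [3H]kallidine (DesArg10,Leu9) plus increasing test compound. Filtration binding; non-specific defined with 1.0 μM kallidine (DesArg10); Ki from non-linear curve fitting.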

SMILES | Ki [nM] | inhibition at 10 µM [%]
O=C(NC1(C(=O)NCc2ncc(Nc3c(F)cccc3C(F)(F)F)cc2F)CC1)c1cncnc1 [(120)] | 2.4 | 113
Cc1ncc(C(=O)N[C@@]2(C(=O)NCc3ccc(Nc4ccccc4C(F)(F)F)cc3)CCOC2)cn1 [(83)] | 9 | 113
COc1cncc(C(=O)N[C@@]2(C(=O)NCc3ccc(Nc4ccc(F)cc4C(F)(F)F)cc3)CCOC2)c1 [(381)] | 93 | 
CN(c1ccccc1)c1ccc(CNC(=O)C2(NC(=O)c3cncnc3)CC2)cc1 [(109)] |  | 27
Nc1ncc(C(=O)NC2(C(=O)NCc3ccc(Nc4ccc(Cl)cc4C(F)(F)F)cn3)CC2)cc1Br [(378)] | 4.6 | 
Cc1ccc(C(=O)NC2(C(=O)NCc3ccc(Nc4ccc(F)cc4C(F)(F)F)cn3)CC2)cn1 [(341)] | 69 | 
CN1CC(C(=O)N[C@@]2(C(=O)NCc3ccc(Nc4ccccc4C(F)(F)F)cc3)CCOC2)CC1=O (stereo partly shown) [(71)] |  | 80
Cc1ccc(C(=O)NC2(C(=O)NCc3ccc(Nc4ccc(Br)cc4C(F)(F)F)cn3)CC2)cn1 [(315)] | 40 | 
CNc1cncc(C(=O)N[C@@]2(C(=O)NCc3ccc(Nc4ccc(F)cc4C(F)(F)F)cc3)CCOC2)c1 [(305)] | 76 | 
CC(NC(=O)[C@]1(NC(=O)c2cncnc2)CCOC1)c1ccc(Nc2ccc(F)cc2C(F)(F)F)cn1 (stereo partly shown) [(47)] | 39 | 94
COc1ncc(C(=O)N[C@@]2(C(=O)NCc3ncc(Nc4c(F)cccc4C(F)(F)F)cc3Cl)CCOC2)cn1 [(258)] | 37 | 
Nc1cncc(C(=O)N[C@@]2(C(=O)NCc3ncc(Nc4c(F)cccc4C(F)(F)F)cc3Cl)CCOC2)c1 [(237)] | 151 | 
Nc1ccc(C(=O)N[C@@]2(C(=O)NCc3ccc(Nc4ccc(F)cc4C(F)(F)F)cn3)CCOC2)cn1 [(349)] | 648 | 
O=C(Cc1cccnc1)N[C@@]1(C(=O)NCc2ccc(Nc3ccccc3C(F)(F)F)cc2)CCOC1 [(104)] |  | 54
CC(NC(=O)C1(NC(=O)c2cncnc2)CC1)c1ccc(Nc2ccccc2C(F)(F)F)cn1 (stereo not shown) [(40)] | 2.9 | 110
O=C(Cc1cncnc1)NC1(C(=O)NCc2ccc(Nc3ccccc3C(F)(F)F)cc2)CC1 [(34)] | > 500 | 94
O=C(N[C@@]1(C(=O)NCc2ncc(Nc3ccc(Cl)cc3C(F)(F)F)cc2Cl)CCOC1)c1cncnc1 [(278)] | 16 | 
CC(=O)Nc1cncc(C(=O)NC2(C(=O)NCc3ccc(Nc4ccc(F)cc4C(F)(F)F)cn3)CC2)c1 [(249)] | 518 | 
O=C(NC1(C(=O)NCc2ccc(Nc3ccccc3C(F)(F)F)cc2)CC1)C1CC1 [(15)] |  | 99
O=C(NC1(C(=O)NCc2ccc(Nc3ccccc3C(F)(F)F)cc2)CC1)c1cncc(C(F)(F)F)c1 [(26)] |  | 109
CC(NC(=O)C1(NC(=O)c2cncnc2)CC1)c1ncc(Nc2c(F)cccc2C(F)(F)F)cc1F (stereo not shown) [(121)] | 2 | 113
Nc1nc2cc(C(=O)NC3(C(=O)NCc4ccc(Nc5ccc(Cl)cc5C(F)(F)F)cn4)CC3)ccc2[nH]1 [(265)] | 75 | 

SMILES | Ki [nM] | inhibition at 10 µM [%]
O=C(NC1(C(=O)NCc2ccc(Nc3c(F)cccc3Br)cn2)CC1)c1cncnc1 [(326)] | 504 | 
O=C(N[C@@]1(C(=O)NCc2ccc(Nc3ccc(F)cc3C(F)(F)F)cn2)CCOC1)c1cnc2[nH]cnc2c1 [(159)] | 97 | 91
COc1ncc(C(=O)N[C@@]2(C(=O)NCc3ccc(Nc4ccc(F)cc4C(F)(F)F)cc3)CCOC2)cn1 [(300)] | 45 | 
Cn1cnc(C(=O)NC2(C(=O)NCc3ccc(Nc4ccccc4C(F)(F)F)cc3)CC2)c1 [(17)] |  | 75
O=C(N[C@@]1(C(=O)NCc2ccc(Nc3ccccc3C(F)(F)F)cc2)CCOC1)c1ccc(=O)[nH]n1 [(62)] |  | 60
O=C(N[C@@]1(C(=O)NCc2ccc(Nc3ccccc3C(F)(F)F)cc2)CCOC1)c1ccncc1 [(95)] |  | 86
O=C(NC1(C(=O)NCc2ccc(Nc3ccc(Cl)cc3C(F)(F)F)cn2)CC1)c1cncc(Cl)c1 [(352)] | 59 | 
Cc1ncc(C(=O)NC2(C(=O)NCc3ncc(Nc4c(F)cccc4C(F)(F)F)cc3F)CC2)cn1 [(134)] | 4.7 | 101
O=C(NC1(C(=O)NCc2ccc(Nc3ccccc3C(F)(F)F)cc2)CC1)c1ccccc1 [(20)] |  | 81
O=C(NC1(C(=O)NCc2ccc(Nc3ccc(Cl)cc3C(F)(F)F)cn2)CC1)c1ccnc(O)c1 [(207)] | 84 | 
CC(NC(=O)C1(NC(=O)c2cncc(N)c2)CC1)c1ncc(Nc2c(F)cccc2C(F)(F)F)cc1F (stereo not shown) [(122)] | 6.3 | 113
CN1CCC(C(=O)NC2(C(=O)NCc3ccc(Nc4ccccc4C(F)(F)F)cc3)CC2)CC1 [(22)] |  | 60
CC(C)Nc1ncc(C(=O)NC2(C(=O)NCc3ccc(Nc4ccc(Cl)cc4C(F)(F)F)cn3)CC2)cn1 [(382)] | 6.8 | 
O=C1CCCC(C(=O)N[C@@]2(C(=O)NCc3ccc(Nc4ccccc4C(F)(F)F)cc3)CCOC2)C1 (stereo partly shown) [(69)] |  | 42
Nc1cncc(C(=O)N[C@@]2(C(=O)NCc3ncc(Nc4ccc(F)cc4C(F)(F)F)cc3F)CCOC2)c1 [(156)] | 8.5 | 107
COc1ncc(C(=O)N[C@@]2(C(=O)NCc3ccc(Nc4ccc(F)cc4C(F)(F)F)cn3)CCOC2)cn1 [(327)] | 89 | 
COc1ccc(C(=O)NC2(C(=O)NCc3ccc(Nc4ccc(Cl)cc4C(F)(F)F)cn3)CC2)cn1 [(240)] | 506 | 
Cc1ccccc1N(C)c1ccc(CNC(=O)C2(NC(=O)c3cncnc3)CC2)cc1 [(113)] |  | 7
CC(NC(=O)C1(NC(=O)c2cncnc2)CC1)c1ccc(Nc2ccc(Cl)cc2C(F)(F)F)cn1 (stereo not shown) [(164)] | 3.4 | 106
CC(NC(=O)C1(NC(=O)c2cncnc2)CC1)c1ncc(Nc2ccc(Br)cc2C(F)(F)F)cc1F (stereo not shown) [(213)] | 1.9 | 
CCCNc1ccc(C(=O)NC2(C(=O)NCc3ccc(Nc4ccc(Br)cc4C(F)(F)F)cn3)CC2)cn1 [(335)] | 28 | 
O=C(NC1(C(=O)NCc2ccc(Nc3ccc(Cl)cc3C(F)(F)F)cn2)CC1)c1cncs1 [(149)] |  | 100

SMILES | Ki [nM] | inhibition at 10 µM [%]
Nc1cncc(C(=O)N[C@@]2(C(=O)NCc3ncc(Nc4c(F)cccc4C(F)(F)F)cc3F)CCOC2)c1 [(154)] | 89 | 101
O=C(N[C@@]1(C(=O)NCc2ccc(Nc3ccccc3C(F)(F)F)cc2)CCOC1)c1cc[nH]n1 [(106)] |  | 69
O=C(NC1(C(=O)NCc2ccc(Nc3ccc(Cl)cc3C(F)(F)F)cn2)CC1)c1cncc(C(F)(F)F)c1 [(354)] | 27 | 
CC(NC(=O)C1(NC(=O)c2cncnc2)CC1)c1ccc(Nc2ccc(OC(F)F)cc2)cc1 (stereo not shown) [(25)] |  | 86
O=C(NC1(C(=O)NCc2ccc(Nc3ccc(F)cc3C(F)(F)F)cn2)CC1)c1cnc(N2CCCCC2)nc1 [(248)] | 276 | 
O=C(N[C@@]1(C(=O)NCc2ccc(Nc3ccccc3C(F)(F)F)cc2)CCOC1)c1ccco1 [(94)] |  | 57
O=C(NC1(C(=O)NCc2ccc(Nc3ccccc3Cl)cc2)CC1)c1cncnc1 [(2)] | 25 | 100
CNc1ncc(C(=O)N[C@@]2(C(=O)NCc3ccc(Nc4ccccc4C(F)(F)F)cc3)CCOC2)cn1 [(82)] |  | 107
NC(=O)c1ccc(Nc2ccc(CNC(=O)C3(NC(=O)c4cncnc4)CC3)nc2)c(C(F)(F)F)c1 [(198)] | > 500 | 64
Cn1ccc(C(=O)N[C@@]2(C(=O)NCc3ccc(Nc4ccccc4C(F)(F)F)cc3)CCOC2)cc1=O [(84)] | 90 | 104
COc1ncc(C(=O)N[C@@]2(C(=O)NCc3ncc(Nc4ccc(F)cc4C(F)(F)F)cc3F)CCOC2)cn1 [(238)] | 6.6 | 
Nc1ccc(C(=O)N[C@@]2(C(=O)NCc3ncc(Nc4ccc(Cl)cc4C(F)(F)F)cc3F)CCOC2)cn1 [(293)] | 65 | 
O=C(NC1(C(=O)NCc2ccc(Nc3ccc(F)cc3C(F)(F)F)cn2)CC1)c1cncc(Cl)c1 [(339)] | 49 | 
O=C(NC1(C(=O)NCc2ccc(Nc3ccc(F)cc3C(F)(F)F)cn2)CC1)c1cncc(C(F)(F)F)c1 [(340)] | 28 | 
Nc1cc(C(=O)N[C@@]2(C(=O)NCc3ccc(Nc4ccccc4C(F)(F)F)cc3)CCOC2)ccn1 [(63)] | 118 | 108
Cn1ccc(C(=O)NC2(C(=O)NCc3ccc(Nc4ccc(Br)cc4C(F)(F)F)cn3)CC2)cc1=O [(177)] |  | 99
Nc1ccc(C(=O)N[C@@]2(C(=O)NCc3ccc(Nc4ccc(Cl)cc4C(F)(F)F)cc3)CCOC2)cn1 [(318)] | 316 | 
O=C(NC1(C(=O)NCc2ccc(Nc3ccc(Cl)cc3C(F)(F)F)cn2)CC1)c1cn[nH]c1 [(372)] | 24 | 
O=C(NC1(C(=O)NCc2ccc(Nc3ccc(Br)cc3C(F)(F)F)cn2)CC1)c1cncc(O)c1 [(141)] | 7.6 | 100
O=C(NC1(C(=O)NCc2ccc(Nc3ccc(F)cc3C(F)(F)F)cn2)CC1)c1cnc(N2CCCC2)nc1 [(250)] | 175 | 
O=C(N[C@@]1(C(=O)NCc2ccc(Nc3ccccc3C(F)(F)F)cc2)CCOC1)c1ccc(O)nc1 [(98)] | 417 | 103
Cc1ncc(C(=O)NC2(C(=O)NCc3ccc(Nc4ccc(Cl)cc4C(F)(F)F)cn3)CC2)cn1 [(147)] | 4.4 | 107
